What is called EC50 is the concentration giving half of the maximal effect. A low value points to an effect from little substance.

The test system of data set [1] is Male C57BL/6 mice. Nature of the data set: In vivo protection against doxorubicin-induced cardiotoxicity (ECG, echocardiography). Particulars: 1 mg/kg i.p. twice a day for 2 days, doxorubicin 25 mg/kg i.p., ECG day 4, heart echo day 5. As to the method:
Compound 28 was evaluated for protecting against doxorubicin-induced cardiotoxicity in mice.
Male C57BL/6 mice between 7 and 8 months old were treated with Compound 28 (at a dosage of 1 mg/kg) or a vehicle (1.5 wt % of DMF and 3 wt % of Cremophor® EL in PBS) via intraperitoneal injection (i.p.) twice a day for 2 days. At day 0, 1 hour after the treatment with Compound 28, doxorubicin (25 mg/kg, i.p.) or another vehicle (10% DMSO in normal saline) was injected into mice.
Electrocardiogram (ECG) and heart echo on day 4 and day 5 respectively were used as indications of cardiac function. […]
Functional test of heart using ECG was performed as described in Yeh et al., PLoS Biol. 2019, 17, e3000508. […] Continuous 5-minute ECGs were obtained using subcutaneous electrodes attached at the four limbs and recorded with PowerLab® data acquisition system (model ML866, ADInstruments, Colorado Springs, CO) and Animal Bio Amp® (model ML136, ADInstruments). ECG analysis was performed in an unbiased fashion where 1500 beats were analyzed using LabChart® 7 Pro version 7.3.1 (ADInstruments, Inc). […]
Transthoracic mouse echocardiography was used to provide noninvasive imaging of the heart on a VisualSonics® VeVo® 2100 imaging system (VisualSonics, Toronto, Ontario, Canada). […] Body temperature was maintained and monitored at 36° C. to 37° C. on a heated pad (TC-1000, CWE Inc. USA). ECGs were continuously monitored. […]

For data set [2], the system named is Cisd2 promoter with firefly luciferase reporter. Nature of the data set: Cisd2-luciferase reporter assay in HEK293-CISD2 cells. As to conditions: Homo sapiens, 24 hours incubation, luciferase luminescence. Format: cell-based. A digest of the protocol: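 HEK293 cells stably carrying Cisd2 promoter-firefly luciferase, seeded at 3×10^3 cells/well, exposed to compounds 24 h at 37 °C; luminescence read after 5 min ONE-Glo at room temperature. EC50 reported in classes: A <1 μM, B 1-5 μM, C 5-10 μM.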
(In general: Reporter assays use an easily measured gene product as a stand-in for the process of interest.)

The test system of data set [3] is Cisd2 hKO-het mice. The data set is described as follows: In vivo NAFLD study in Cisd2 hKO-het mice (histopathology, serum biochemistry). As to conditions: Cisd2 hKO-het male mice, 0.015 wt % in diet for 4 weeks. As to the method:
Compound 28 of this invention was evaluated for its anti-nonalcoholic fatty liver disease (NAFLD) effect and in vivo toxicity following an assay described below.
Cisd2 floxed allele (Cisd2 f/f) mice were prepared following a procedure described in Wang et al., Hum. Mol. Genet. 23, 4770-85(2014). To obtain Cisd2 heterozygous hepatocyte-specific knockout (Cisd2 hKO-het, Cisd2 f/+; Alb-Cre Tg), Cisd2 f/f mice were bred with Albumin-Cre transgenic (Alb-Cre Tg, JAX003574) mice. After one generation, Cisd2 hKO-het mice were obtained. Male mice were chosen to be used in this study. All mice have a pure or congenic C57BL/6 background and were bred/housed in a specific pathogen-free facility with a 12 h light/12 h dark cycle at a temperature of 20-22° C. Groups of mice at 8 weeks old were provided a diet (AIN93G, TestDiet) containing a vehicle (0.14 wt % of DMF and 0.15 wt % of Cremophor® EL) or compound 28 (0.015 wt %) for 4 weeks.
Histopathology was used to evaluate the efficacy of Compound 28 in ameliorating NAFLD. Liver tissues were collected and fixed with 10% formalin at 4° C. overnight. They were then processed in a tissue processor (STP120, MICROM), followed by embedding in paraffin. H&E of tissue sections (3-4 m) were carried out by a standard protocol. […]

On to `O=C(CS(=O)(=O)c1nccs1)N1Cc2ccccc2C1` [Compound 28, 1-(1,3-dihydro-2H-isoindol-2-yl)-2-(1,3-thiazol-2-ylsulfonyl)ethanone], for which, in data set [1], the “protection against doxorubicin-induced cardiotoxicity” value is on record as “protected against doxorubicin-induced cardiotoxicity”. Further, the EC50 in data set [2] was less than 1000 nM. In data set [3] (liver histopathology), the “anti-nonalcoholic fatty liver disease (NAFLD) effect” value was “ameliorated NAFLD in Cisd2 hKO-het mice”. Moreover, the in vivo toxicity result in data set [3] (serum ALT, AST, BUN, CRE) is on record as “without observed toxicity”.

The values are drawn from patent US11827629B2, “CDGSH iron sulfur domain 2 activators and use thereof” (National Health Research Institutes, priority 2021, dated 2023).
